Tested on: LPA1-initiated signaling in HER2-negative/PI3K//ERK/MEK/RAF/mTOR Wild-Type breast tumor cell samples
Experiment: impedance biosensor cell adhesion test, LPA1 agonist with RAS node inhibitors (Example 4)
Format: cell-based, human
Set-up: unit not given here
Excerpt: Tissue and cell samples: 28 HER2-negative/PI3K//ERK/MEK/RAF/mTOR Wild-Type breast tumor cell samples were studied. […] From these responses, the net amount of LPA1-initiated signaling involving PI3K-α, Class 1 PI3K-isoforms (pan-PI3K), Class 1 PI3K-isoforms and mTOR, Bcl-xL and Bcl-2, MEK, ERK, and RAF, individually and in combination, was quantified.
In this example, 14 of the 28 patient cell samples tested recorded output values with at least one of the targeted therapeutic(s) above 250. […] Five patients would be selected to receive treatment with gedatolisib, four would be selected to receive treatment with copanlisib, one patient would be selected to receive treatment with PLX7904, six patients would be selected to receive treatment with gedatolisib and PLX7904, seven patients would be selected to receive treatment with gedatolisib and ravoxertinib, nine patients would be selected to receive treatment with gedatolisib and trametinib, and 14 patients would be selected to receive treatment with gedatolisib and navitoclax.

[1] = sample C1838.01.155, cut-off 250
[2] = sample C1986.01.10, cut-off 250
[3] = sample C2090.01.14, cut-off 250
[4] = sample C2169.01.10, cut-off 250
[5] = sample C3091.01.13, cut-off 250
[6] = sample C3132.01.13, cut-off 250
[7] = sample C3311.01.10, cut-off 250
[8] = sample CL021.01.869, cut-off 250

Row | Structure (SMILES) | output value (sample C1816.01.6, cut-off 250) | output value [1] | output value (sample C1918.01.5, cut-off 250) | output value [2] | output value [3] | output value (sample C2167.01.4, cut-off 250) | output value [4] | output value (sample C2483.01.6, cut-off 250) | output value (sample C2693.01.2, cut-off 250) | output value (sample C2697.01.4, cut-off 250) | output value (sample C2729.01.4, cut-off 250) | output value (sample C2748.01.4, cut-off 250) | output value (sample C2792.01.2, cut-off 250) | output value (sample C2794.01.9, cut-off 250) | output value (sample C2868.01.6, cut-off 250) | output value (sample C2991.01.7, cut-off 250) | output value [5] | output value (sample C3101.01.6, cut-off 250) | output value [6] | output value [7] | further results
1 | CCN(C)S(=O)(=O)Nc1ccc(F)c(C(=O)c2c[nH]c3ncc(-c4cnc(C5CC5)nc4)cc23)c1F [PLX7904] | 158 | −91 | −5 | −19 | −38 | 22 | 14 | 67 | −10 | −2 | −2 | 14 | 5 | 36 | −12 | 53 | 50 | 262 | 22 | −17 | output value (sample C3337.01.6, cut-off 250): 58; output value (sample C3377.01.2, cut-off 250): −58; output value (sample C3507.01.5, cut-off 250): 46; output value (sample C3730.01.9, cut-off 250): −173; output value (sample C3873.01.4, cut-off 250): 89; output value (sample C3957.01.6, cut-off 250): −22; output value (sample C4005.01.2, cut-off 250): −22; output value [8]: 19
2 | CN(C)C1CCN(C(=O)c2ccc(NC(=O)Nc3ccc(-c4nc(N5CCOCC5)nc(N5CCOCC5)n4)cc3)cc2)CC1 [gedatolisib] | 84 | 50 | 206 | 101 | 137 | 132 | 242 | 130 | 86 | 103 | 103 | 72 | 137 | 38 | 79 | 396 | 204 | 149 | 65 | 216 | output value (sample C3337.01.6, cut-off 250): 336; output value (sample C3377.01.2, cut-off 250): 113; output value (sample C3507.01.5, cut-off 250): 70; output value (sample C3730.01.9, cut-off 250): 494; output value (sample C3873.01.4, cut-off 250): 298; output value (sample C3957.01.6, cut-off 250): 74; output value (sample C4005.01.2, cut-off 250): 216; output value [8]: 353
3 | Cn1nccc1Nc1nccc(-c2ccn([C@H](CO)c3ccc(Cl)c(F)c3)c(=O)c2)n1 [ravoxertinib] | 96 | 108 | 65 | 26 | 48 | 7 | 14 | 12 | −55 | 55 | 10 | 60 | 24 | −24 | −36 | 10 | 67 | −12 | −22 | −67 | output value (sample C3337.01.6, cut-off 250): 53; output value (sample C3377.01.2, cut-off 250): 0; output value (sample C3507.01.5, cut-off 250): −24; output value (sample C3730.01.9, cut-off 250): −300; output value (sample C3873.01.4, cut-off 250): 43; output value (sample C3957.01.6, cut-off 250): −5; output value (sample C4005.01.2, cut-off 250): 12; output value [8]: −226
4 | CC(=O)Nc1cccc(-n2c(=O)n(C3CC3)c(=O)c3c(Nc4ccc(I)cc4F)n(C)c(=O)c(C)c32)c1 [trametinib] | 29 | 31 | 65 | 161 | 19 | −7 | 67 | 132 | −60 | 72 | 26 | 79 | 48 | −14 | −43 | −70 | 50 | 101 | 10 | 94 | output value (sample C3337.01.6, cut-off 250): 113; output value (sample C3377.01.2, cut-off 250): 149; output value (sample C3507.01.5, cut-off 250): −29; output value (sample C3730.01.9, cut-off 250): −204; output value (sample C3873.01.4, cut-off 250): −72; output value (sample C3957.01.6, cut-off 250): 10; output value (sample C4005.01.2, cut-off 250): 36; output value [8]: −226

— patent US20220412957A1, “METHODS OF TREATING CANCER PATIENTS WITH RAS NODE OR RTK TARGETED THERAPEUTIC AGENTS” (Celcuity Inc., priority 2019, published 2022)
